According to patent US20260078120A1, “SUBSTITUTED PYRIDOPYRIMIDINONES” (MIRATI THERAPEUTICS, INC., priority 2022, published 2026):

Legend:
Assay type in all cases: cell-based
[1] = system: SKBR3 (PI3Kα wild type) cells; assay: CellTiter-Glo 2.0 luminescent cell viability assay, 72 hours, SKBR3 cells; conditions: Homo sapiens, SK-BR-3, 72 h, SKBR3 (PI3Kα wild type) cells, CellTiter-Glo, approximately 72 hours; read-out: SKBR3 (WT) Viability IC50
Summary of the method: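 Viability measured via CTG luminescence following roughly 72 hours of compound exposure at 37° C. Dosing used a 10 um starting concentration diluted 1:4 over 10 points; percent-of-vehicle data fitted with a variable-slope four-parameter model for IC50.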

[2] = system: SKBR3 (PI3Kα wild type) cells; assay: Inhibition of pAKT formation, alphaLISA SureFire Ultra AKT 1/2/3 (pS473), SKBR3 cells; conditions: Homo sapiens, SK-BR-3; Inhibition of pAKT in SKBR3 (PI3Kα wild type) cells; read-out: SKBR3 (WT) pAKT IC50 (nM) (H1047R mutant) IC50
Description: (§1) The ability of a compound of Formula (I) to inhibit the formation of pAKT was measured using alphaLISA Surefire Ultra AKT 1/2/3 (pS473) Assay Kit (#ALSU-PAKT-B50K) was obtained from Perkin Elmer (Waltham, MA).
(§2) To prepare assay plates for pAKT alphaLISA assays, cells were trypsinized, resuspended in fresh media, and viable cells were counted utilizing trypan blue exclusion. Prior to seeding, cells were washed with PBS and resuspended in HBSS (Gibco, #14025092). T47D (12,000/w), SKBR3(12,000/w), or MKN1(24,000/w) cells were seeded at 12 μl per well in a solid white flat bottom 384 cell culture plate (Perkin Elmer #6007680).
(§3) Immediately after seeding, cells were dosed using an Echo Liquid Handler (Beckman Coulter) with compounds at a […] starting concentration and serially diluted (1:4) for a total of 10 concentrations. […] Cells were incubated with the compounds (solubilized in DMSO) for approximately one hour or 24 hours at 37° C. After one hour (or 24 hours) of treatment, cells were lysed with 3 μl of the 5× lysis buffer (provided and incubated at room temperature for 15 min on a microtiter plate shaker). Once cells were sufficiently lysed, 7.5 μl of the acceptor bead mix (made using the manufacturers recommended dilutions) was added to each well and left on the microtiter plate shaker for 1 min prior to incubating plates at room temperature for one hour, in the absence of light. After one hour of incubation with the acceptor bead mix, 7.5 μl of the donor bead mix (made using the manufacturers recommended dilutions) was added to each well and left on the microtiter plate shaker for 1 min prior to incubating plates at room temperature overnight in the absence of light. Plates were then imaged the following day using a CLARIOstar microplate reader (BMG Labtech, Germany).
(§4) Percent of control values were calculated by subtracting the average signal from the positive control (alpelisib) treated wells from all treated wells (including DMSO control wells) and then divided by the average signal from the vehicle DMSO treated control wells. Percent of vehicle control values were plotted as log (inhibitor) vs. response-Variable slope (four parameters) for curve fitting and IC50 values were determined using XLfit.
(§5) Key: N.D. =not determined

[3] = system: MKN1 (PI3Kα E545K mutant) cells; assay: Inhibition of pAKT formation, alphaLISA SureFire Ultra AKT 1/2/3 (pS473), MKN1 cells; conditions: Homo sapiens, MKN-1; MKN1 (PI3Kα E545K mutant) cells; inhibition of pAKT (pS473) formation; approximately one hour or 24 hours treatment; read-out: MKN1 (E545K) pAKT IC50
Description: as §1, §2, §3, §4, §5

[4] = system: T47D (PI3Kα H1047R mutant) cells; assay: CellTiter-Glo 2.0 luminescent cell viability assay, 72 hours, T47D cells; conditions: Homo sapiens, T47D, 72 h, T47D (PI3Kα H1047R mutant) cells, CellTiter-Glo, approximately 72 hours; read-out: T47D (H1047R mutant) Viability IC50
Summary of the method: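 Viability was measured by CellTiter-Glo 2.0 luminescence after approximately 72 h of compound exposure at 37° C. Plating was 1000 cells per well the day before dosing, with ten 1:4 dilutions from a 10 µM top concentration. Values as percent of vehicle were fitted by variable-slope log(inhibitor) regression to give IC50.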

[5] = system: MKN1 (PI3Kα E545K mutant) cells; assay: CellTiter-Glo 2.0 luminescent cell viability assay, 72 hours, MKN1 cells; conditions: Homo sapiens, MKN-1; MKN1 (PI3Kα E545K mutant) cells, CellTiter-Glo, approximately 72 hours; read-out: MKN1 (E545K) Viability IC50
Description: This Example illustrates that exemplary compounds of the present invention decrease the viability of cells.
The ability of a compound of Formula (I) to decrease the viability of cells was measured using CellTiter-Glo 2.0 (CTG) Luminescent Cell Viability Assay (#G9241) obtained from Promega (Madison, WI).
To prepare assay plates for viability assays, cells were trypsinized, resuspended in fresh media, and viable cells were counted utilizing trypan blue exclusion. T47D, SKBR3, or MKN1 cells were seeded at 1000 cells in 30 μl per well in a solid white flat bottom 384 cell culture plate (Perkin Elmer #6007680) and incubated at 37° C. overnight.
Assay day 1, cells were dosed using an Echo Liquid Handler (Beckman Coulter) with compounds at a 10 um starting concentration and serially diluted (1:4) for a total of 10 concentrations. Cells were incubated for approximately 72 hours with the compounds (solubilized in DMSO) at 37° C. After 72 hours of treatment, cell plates were equilibrated to room temperature before adding 15 μl of CTG to each well, plates were then covered in aluminum foil to protect from light, incubated at room temperature for 30 minutes on a microtiter plate shaker, and luminescence readings were collected using a CLARIOstar microplate reader (BMG Labtech, Germany). Percent of vehicle control values were plotted as log (inhibitor) vs. response-Variable slope (four parameters) for curve fitting and IC50 values were determined using XLfit.

[6] = system: T47D (PI3Kα H1047R mutant) cells; assay: Inhibition of pAKT formation, alphaLISA SureFire Ultra AKT 1/2/3 (pS473), T47D cells; conditions: Homo sapiens, T47D, T47D (PI3Kα H1047R mutant) cells; inhibition of pAKT (pS473) formation; approximately one hour or 24 hours treatment; read-out: T47D pAKT (H1047R mutant) IC50
Summary of the method: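 AKT Ser473 phosphorylation was quantified by alphaLISA SureFire Ultra after roughly 1 h or 24 h compound exposure at 37 °C. Cells were T47D (12,000/well in HBSS), treated with a 10-point 1:4 series starting at 10.4 μM. Percent of control used alpelisib background and DMSO reference, and IC50 came from four-parameter logistic fitting.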

SMILES	IC50 [1] [µM]	IC50 [2] [nM]	IC50 [3] [µM]	IC50 [4] [µM]	IC50 [5] [µM]	IC50 [6] [µM]
Cc1cc([C@@H](C)Nc2ccccc2C(=O)O)c2nc(N3CCCCC3)cc(=O)n2c1 (single isomer, unassigned) [Example 3-1]	> 10	> 10000	2.5	1.27	> 10	0.0149
Cc1cc([C@H](C)Nc2ccccc2C(=O)O)c2nc(N3CCCCC3)cc(=O)n2c1 (single isomer, unassigned) [Example 3-2]	> 10	> 10000	0.755	> 10	> 10	1.91
Cc1cc([C@@H](C)Nc2ccccc2C(=O)O)c2nc(N3CCC(C)(C)CC3)c(C)c(=O)n2c1 (single isomer, unassigned) [Example 5-1]	> 10	1820	1.39	0.461	> 10	0.03
Cc1cc([C@H](C)Nc2ccccc2C(=O)O)c2nc(N3CCC(C)(C)CC3)c(C)c(=O)n2c1 (single isomer, unassigned) [Example 5-2]	> 10	> 10000	> 10	9.03	–	> 10
Cc1cc([C@H](C)Nc2ccccc2C(=O)O)c2nc(N3CCC(C)(C)CC3)cc(=O)n2c1 (single isomer, unassigned) [Example 5-4]	> 10	7070	1.95	0.98	> 10	0.0135
Cc1cc([C@@H](C)Nc2ccccc2C(=O)O)c2nc(N3CCC(C)(C)CC3)cc(=O)n2c1 (single isomer, unassigned) [Example 5-5]	> 10	> 10000	> 10	8.02	> 10	1.21
Cc1cc([C@H](C)Nc2ccccc2C(=O)O)c2nc(N3Cc4ccccc4C3)c(C)c(=O)n2c1 (single isomer, unassigned) [Example 5-9-1]	> 10	4550	0.271	0.316	> 10	0.0117
Cc1cc([C@@H](C)Nc2ccccc2C(=O)O)c2nc(N3Cc4ccccc4C3)c(C)c(=O)n2c1 (single isomer, unassigned) [Example 5-9-2]	> 10	> 10000	> 10	9.68	> 10	3.01
Cc1cc(C(C)Nc2cccc(O)c2C(=O)O)c2nc(N3CCCCC3)cc(=O)n2c1 (centres unmarked) [Example 3-4, 2-hydroxy-6-((1-(7-methyl-4-oxo-2-(piperidin-1-yl)-4H-pyrido[1,2-a]pyrimidin-9-yl)ethyl)amino)benzoic acid]	–	> 10000	8.83	–	–	2.28
